From patent publication US20140186875A1, “NOVEL OPTICAL LABELING MOLECULES FOR PROTEOMICS AND OTHER BIOLOGICAL ANALYSIS” (Montana State University, priority 2007, published 2014) come the findings set out here.

The nature of data set [1]: Optical properties of the dyes (absorbance, emission, extinction coefficient, quantum efficiency). Format: physicochemical.
In data set [2] the test system is Glutathione S Transferase Omega1—GSTO1. Kind of data set: Differential 2D gel analysis of developing rat brain proteins raised on high and low docosahexaenoic acid. Format: in vivo. The conditions noted are these: DHA enriched diet compared with adequate control diet, cytosolic brain fraction. As for the experimental part:
Each forebrain was ground using a pestle and mortar, previously brought to liquid nitrogen temperature in a sealed plastic bag with positive dry nitrogen gas pressure. After grinding of the tissue at liquid nitrogen temperature, […] sample of cell lysis buffer containing 20 mM Bicine, 5 mM magnesium acetate, 0.5% Nonidet P-40 and Roche Complete protease inhibitor—mini EDTA free, were added to about a 100 mg sample and mixed well in a 2 ml microcentrifuge tube. Sample fractionation—Crude nuclear fraction (P1) was removed by sedimentation at 1000×g for 10 min at room temp. The supernatant (S1) was removed and was ultra-centrifuged at 100,000×g at 4° C. for an hour in 2 ml polycarbonate tubes in a swinging bucket rotor. The cytosolic fraction S2 was separated. […] Protein concentrations of the cytosolic and membrane organelle fractions were assessed, using the Bio-Rad RCDC assay. […]
1st dimension separation—the sample was spread in a lane of a Bio-Rad Protean isoelectric focusing (IEF) cell tray, an 18 cm 3-10 non-linear IPG strip, or 3-7, or 6-11 IEF strip was put on top of it, covered with mineral oil and allowed to passively re-hydrate for one hr. […] The IPG strips were then transferred to an Ettan IPGphor and covered with mineral oil for monitored iso-electric focusing as follows, 3:30 hrs 300V, 2:30 hrs 1000V, 2:30 hrs 2500V and 7:30 hrs 3500V. […]

On to `CN1/C(=C/C2=C([O-])C(=C/C3=[N+](C)c4ccccc4C3(C)C)/C2=O)C(C)(C)c2ccccc21` [Compound 220], for which, in data set [1], the ε is recorded as 280000 1·cm^−1·mol^−1, the “λ(abs)” value is given as 629 nm and the “λ(ems)” value was found to be 640 nm.

Turning to `CN(CCCCCC(=O)O)CCNC(=O)C(CS(=O)(=O)[O-])NC1=C(/C=C2/N(C)c3ccccc3C2(C)C)C(=O)/C1=C\C1=[N+](C)c2ccccc2C1(C)C` (centres unmarked) [Compound 222], in data set [1], the “QE (QY)” value is on record as 2.9%, the ε is given as 127300 1·cm^−1·mol^−1, the “λ(abs)” value turned out to be 644 nm and the “λ(ems)” value came out at 657 nm.

Take `COc1cc(C(C)O)c([N+](=O)[O-])cc1OCCN(C)CCNC(=O)C(CS(=O)(=O)[O-])NC1=C(/C=C2/N(C)c3ccccc3C2(C)C)C(=O)/C1=C\C1=[N+](C)c2ccccc2C1(C)C` (centres unmarked) [Compound 227]: in data set [1], the “QE (QY)” value is 2.9%, the ε is 101400 1·cm^−1·mol^−1, the “λ(abs)” value was found to be 644 nm and the “λ(ems)” value is 657 nm.

Consider `COc1cc(C(C)OC(=O)Oc2ccc([N+](=O)[O-])cc2)c([N+](=O)[O-])cc1OCCNC(=O)C(CS(=O)(=O)[O-])NC1=C(/C=C2/N(C)c3ccccc3C2(C)C)C(=O)/C1=C\C1=[N+](C)c2ccccc2C1(C)C` (centres unmarked) [Compound 230], for which, in data set [1], the “QE (QY)” value was found to be 3.3%, the ε is 79400 1·cm^−1·mol^−1, the “λ(abs)” value was determined as 646 nm and the “λ(ems)” value is given as 661 nm.

Take `CC/C=C\C/C=C\C/C=C\C/C=C\C/C=C\C/C=C\CCC(=O)O` [DHA, Docosahexaenoic acid]: in data set [2], the “down-regulation of spot 2 (GSTO1)” value is 1.7 and the “up-regulation of spot 1 (GSTO1)” value was found to be 2.5.
